In US10716869B2, “Radiolabeled macrocyclic EGFR inhibitor” (Oncodesign SA, priority 2016, dated 2020):

Assays:
[1] = target: T1, NCI-H1975 tumor homogenates (activated EGFR) (Homo sapiens, UniProt P00533, L858R/T790M); assay: binding competition and binding kinetic on tumor homogenates
T1 construct: from tissue; host or cells: NCI-H1975 tumor homogenate
Protocol: (§1) FIG. 2: Binding affinity constant of Compound (II) determined in competition experiments on NCI-H3255 (A) and NCI-H1975 (B) tumor extracts. NCI-H3255 and NCI-H1975 tumor extracts were incubated at room temperature for 90 min with Compound (II) (0.1-0.3 nM) and with increasing concentrations of Compound (IIa) (0.25 nM to 1 μM).
(§2) FIG. 3: Binding kinetic of Compound (II) evaluated on NCI-H3255 (A) and NCI-H1975 (B) tumor extracts. Compound (II) (1.5-2.5 nM) was incubated with extracts for 2 to 90 minutes at room temperature. Non-specific binding was evaluated in the presence of a>100 fold excess Compound (IIa).
(§3) Similar experiments were performed on NCI-H3255 and NCI-H1975 tumor homogenates (FIG. 2). […] The number of binding sites was 1.1±1.5×10^9 and 1.6±1.8×10^9 sites/μg protein respectively in NCI-H3255 and NCI-H1975 tumor homogenates.
(§4) The binding kinetic of Compound (I) was also assessed in NCI-H3255 and NCI-H1975 tumor homogenates (FIG. 3).

[2] = target: T2, NCI-H3255 tumor homogenates (activated EGFR) (Homo sapiens, UniProt P00533, L858R); assay: as above
T2 construct: from tissue; host or cells: NCI-H3255 tumor homogenate
Protocol: as §1, §2, §3, §4

[3] = biodistribution in tumor-bearing Nude rats (ex vivo gamma counting)
Protocol: Dynamic PET scan imaging and ex vivo gamma counting were performed on three cancer xenografts (NCI-H441, NCI-H3255, NCI-H1975) in Nude rats. Xenografts were initiated in athymic, Hsd:RH-Foxnlrnu rats (Harlan, The Netherlands) by subcutaneous injection of 2×10^7 cells in 200 μL RPMI 1640 in the left and right flanks. NCI-H3255 tumor cells were injected in the right flank and NCI-H441 or NCI-H1975 in the left flank. Each study consisted in two experiments on 18 or 19 rats, for a total of 113 rats. Injection of NCI-H3255 cells was performed on DO, 24 to 72 hours after a whole-body irradiation with a […] (5 Gy, ^60Co, BioMep SARL, Bretenières, France). […]
The radiotracer solution was diluted in NaCl 0.9% to prepare a solution of activity 4-6 MBq (gamma-counting experiments) or 25-35 MBq (PET imaging experiments) in a volume of 300-400 or 600-800 μL, respectively. The radioactivity in the syringe was measured before and after tracer injection to determine the injected dose (ID) to animals. […]
For ex vivo gamma counting, after the determined uptake period or after imaging, rats were euthanized by decapitation, and the following organs were harvested and weighed: tumor, kidneys, blood, liver, heart, tail, thigh muscle, lungs, spleen and skin. Tracer distribution was assessed by determining ^18F content in each tissue with a gamma-well counter (PerkinElmer 2480 Wizard2 3). […]

[4] = biodistribution by ex vivo γ-counting in Sprague Dawley rats
Protocol: To evaluate the biodistribution of the pure S (II) and R (III) enantiomers compared to compound (I), dynamic PET scan imaging and ex vivo gamma counting were performed on Sprague Dawley rats. Animals were injected with the radiotracer solution diluted in NaCl 0.9% to prepare a solution of activity 4-6 MBq (gamma-counting experiments) or 11-13 MBq (PET imaging experiments) in a volume of 300-400 or 600-800 μL, respectively. Radioactivity content in all biological samples was determined with scintillation γ-counter (Cobra 4180, Perkin-Elmer Inc.).
At the light of the biodistribution data of compound (I), the biodistribution of the R (III)- and S (II)-enantiomers was assessed by γ-counting in the organs in which the accumulation of compound (I) was prominent (that is: blood, heart, kidneys, liver, stomach, small intestine and colon). Two timepoints were selected: 5 and 30 minutes post-injection. […] The higher uptakes of R enantiomer (III) and S enantiomer (II) in these organs were expected to be observed at early timepoints after injection, giving the highest signals in the γ-counter and therefore making the comparison of biodistribution data more relevant. Besides, as PET images were acquired with compound (I), PET imaging was included in the evaluation of the biodistribution of R enantiomer and S enantiomer. This gave the opportunity to had one additional timepoint at 4 hours post-injection for collection of major organs and determination of radioactivity content by ex vivo γ-counting.

[5] = read-out: dissociation constant (Koff) (converted)

T1 sequence (P00533 25-1210 T790M/L858R): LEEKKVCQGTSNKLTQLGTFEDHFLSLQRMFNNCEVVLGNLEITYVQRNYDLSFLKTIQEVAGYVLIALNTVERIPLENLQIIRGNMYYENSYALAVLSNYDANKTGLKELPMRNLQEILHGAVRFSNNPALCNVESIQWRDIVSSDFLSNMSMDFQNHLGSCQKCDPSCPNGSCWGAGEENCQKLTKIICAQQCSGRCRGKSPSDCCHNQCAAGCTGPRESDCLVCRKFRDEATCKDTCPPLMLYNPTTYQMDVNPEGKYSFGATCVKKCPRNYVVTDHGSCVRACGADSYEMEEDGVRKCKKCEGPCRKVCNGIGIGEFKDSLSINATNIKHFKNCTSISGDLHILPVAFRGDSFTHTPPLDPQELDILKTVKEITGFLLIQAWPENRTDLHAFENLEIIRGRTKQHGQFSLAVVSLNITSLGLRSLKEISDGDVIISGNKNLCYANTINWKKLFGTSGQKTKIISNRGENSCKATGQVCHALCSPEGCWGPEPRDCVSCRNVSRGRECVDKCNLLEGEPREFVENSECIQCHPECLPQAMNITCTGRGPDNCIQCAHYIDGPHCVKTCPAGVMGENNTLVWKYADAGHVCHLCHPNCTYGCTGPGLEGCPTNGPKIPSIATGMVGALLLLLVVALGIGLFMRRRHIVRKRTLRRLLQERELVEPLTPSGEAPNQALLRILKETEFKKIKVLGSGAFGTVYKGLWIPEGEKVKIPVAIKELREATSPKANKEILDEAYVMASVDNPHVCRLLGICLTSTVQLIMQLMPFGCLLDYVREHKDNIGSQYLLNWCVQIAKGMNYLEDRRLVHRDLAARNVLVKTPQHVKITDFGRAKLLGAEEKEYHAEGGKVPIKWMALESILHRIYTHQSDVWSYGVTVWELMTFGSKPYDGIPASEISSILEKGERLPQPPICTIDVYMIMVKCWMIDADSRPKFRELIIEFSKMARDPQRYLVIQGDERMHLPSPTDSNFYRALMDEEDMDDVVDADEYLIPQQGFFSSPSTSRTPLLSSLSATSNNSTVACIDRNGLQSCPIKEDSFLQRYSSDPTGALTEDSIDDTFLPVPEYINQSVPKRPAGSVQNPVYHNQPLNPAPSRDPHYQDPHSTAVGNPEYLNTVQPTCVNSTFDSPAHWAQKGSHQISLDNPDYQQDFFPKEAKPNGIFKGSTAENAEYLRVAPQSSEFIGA
T2 sequence (P00533 25-1210 L858R): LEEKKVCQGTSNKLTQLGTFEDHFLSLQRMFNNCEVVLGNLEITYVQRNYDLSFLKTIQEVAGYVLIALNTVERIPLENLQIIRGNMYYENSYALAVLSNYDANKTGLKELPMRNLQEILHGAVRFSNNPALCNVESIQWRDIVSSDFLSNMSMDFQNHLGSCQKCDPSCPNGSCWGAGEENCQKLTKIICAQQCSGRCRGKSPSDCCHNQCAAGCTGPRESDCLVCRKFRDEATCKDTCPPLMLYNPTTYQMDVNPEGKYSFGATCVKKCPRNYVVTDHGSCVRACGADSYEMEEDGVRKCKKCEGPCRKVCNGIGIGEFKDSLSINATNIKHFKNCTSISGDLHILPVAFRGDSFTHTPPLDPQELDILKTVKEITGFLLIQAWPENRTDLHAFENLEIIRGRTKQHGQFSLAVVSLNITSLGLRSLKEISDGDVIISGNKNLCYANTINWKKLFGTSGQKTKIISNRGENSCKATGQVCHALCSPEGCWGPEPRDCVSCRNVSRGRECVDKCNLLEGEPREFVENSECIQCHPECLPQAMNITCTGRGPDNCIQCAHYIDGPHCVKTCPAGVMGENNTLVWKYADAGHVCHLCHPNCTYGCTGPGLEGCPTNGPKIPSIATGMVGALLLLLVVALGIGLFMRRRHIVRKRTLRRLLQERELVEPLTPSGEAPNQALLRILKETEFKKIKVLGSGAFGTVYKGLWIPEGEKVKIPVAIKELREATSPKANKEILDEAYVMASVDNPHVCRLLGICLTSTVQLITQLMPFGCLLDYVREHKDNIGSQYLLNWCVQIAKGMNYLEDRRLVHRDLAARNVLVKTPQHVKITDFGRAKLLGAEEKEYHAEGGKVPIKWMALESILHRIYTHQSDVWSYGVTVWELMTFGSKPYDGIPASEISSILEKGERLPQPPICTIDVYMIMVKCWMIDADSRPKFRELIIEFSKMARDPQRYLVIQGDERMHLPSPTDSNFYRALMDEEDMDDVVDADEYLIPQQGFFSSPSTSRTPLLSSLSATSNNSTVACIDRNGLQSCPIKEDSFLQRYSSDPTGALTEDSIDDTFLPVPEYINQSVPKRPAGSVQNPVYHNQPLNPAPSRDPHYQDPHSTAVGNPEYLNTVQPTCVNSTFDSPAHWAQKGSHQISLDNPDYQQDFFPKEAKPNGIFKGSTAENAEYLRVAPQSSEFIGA

## CC(C)C1NC(=O)Cc2ccc(Cl)cc2Nc2ncnc3cc(OCC[18F])c(cc23)OCCCNC1=O (stereo not drawn) [Compound (I)]
[1]
  number of binding sites: 1.6±1.8×10^9 sites/μg protein
[1]; read-out: binding affinity
  Kd: 4.7 ± 2 nM
[1]; [5]
  koff: 0.0045 s⁻¹
[2]
  number of binding sites: 1.1±1.5×10^9 sites/μg protein
[2]; read-out: binding affinity
  Kd: 2.8 ± 2.4 nM
[2]; [5]
  koff: 0.0019 s⁻¹
[3]; after 45 min
  uptake in blood: < 0.05 % ID/g
[3]; at 90 min
  absolute uptake in tumors: < 0.5 % ID/g
[4]; 5 minutes post injection
  uptake in liver: 1.66±0.43 % ID/g
  uptake in small intestine: 0.28±0.15 % ID/g
[4]; 5 minutes post-injection
  uptake in blood: 0.13±0.02 % ID/g
  uptake in heart: 0.91±0.12 % ID/g
  uptake in kidneys: 5.07±0.30 % ID/g
[4]; 5 minutes post-injection, unit printed as %
  uptake in stomach: 1.27±2.13%
[4]; 30 minutes post injection
  uptake in liver: 0.37±0.07 % ID/g
[4]; 30 minutes post-injection
  uptake in heart: 0.23±0.05 % ID/g
[4]; 30 minutes timepoint
  uptake in kidneys: 1.47±0.36 % ID/g
  uptake in stomach: 2.72±4.75 % ID/g
[4]; four hours post-injection
  uptake in colon: 10.55±4.53 % ID/g
  uptake in stomach: 0.14±0.23 % ID/g
[4]; thirty minutes post-injection
  uptake in small intestine: 0.40±0.40 % ID/g
